Data: patent US12077503B2, “Substituted cyclic amides and their use as herbicides” (FMC CORPORATION, priority 2015, dated 2024)

Assays:
Type in all cases: in vivo
[1] = tested on: ragweed (common ragweed, Ambrosia elatior); test: Test A preemergence; conditions: Ambrosia artemisiifolia, pre-emergence, 240 h, 0 to 100 scale where 0 is no effect and 100 is complete control, read-out: Ragweed plant response rating; for pest or weed control at 31 g/ha: 31 g ai/ha, Preemergence; for pest or weed control at 125 g/ha: 125 g ai/ha, preemergence, approx. 10 d
Method in brief: (§1)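 Seeds sprayed preemergence with a directed soil spray, or plants at 2 to 10 cm height and one- to two-leaf stage sprayed postemergence, with test chemicals in a non-phytotoxic solvent mixture containing surfactant, in loam soil–sand blend. Injury rated visually against untreated controls after about 10 d in greenhouse, 0 (no effect) to 100 (complete control).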

[2] = tested on: ryegrass, Italian (Italian ryegrass, Lolium multiflorum); test: Test A preemergence; conditions: Lolium multiflorum, pre-emergence, 240 h, 0 to 100 scale where 0 is no effect and 100 is complete control, read-out: Ryegrass, Italian plant response rating; for pest or weed control at 31 g/ha: 31 g ai/ha, Preemergence; for pest or weed control at 125 g/ha: 125 g ai/ha, preemergence, approx. 10 d
Method in brief: as §1

[3] = tested on: barnyardgrass (Echinochloa crus-galli); test: Test A preemergence; conditions: Echinochloa crus-galli, pre-emergence, 240 h, 0 to 100 scale where 0 is no effect and 100 is complete control, read-out: Barnyardgrass plant response rating; for pest or weed control at 31 g/ha: 31 g ai/ha, Preemergence; for pest or weed control at 125 g/ha: 125 g ai/ha, preemergence, approx. 10 d
Method in brief: as §1

[4] = tested on: pigweed (Amaranthus retroflexus); test: Test A preemergence; conditions: Amaranthus retroflexus, pre-emergence, 240 h, 0 to 100 scale where 0 is no effect and 100 is complete control, read-out: Pigweed plant response rating; for pest or weed control at 31 g/ha: 31 g ai/ha, Preemergence; for pest or weed control at 125 g/ha: 125 g ai/ha, preemergence, approx. 10 d
Kochia (Kochia scoparia) [5] = test: Test A preemergence; conditions: Bassia scoparia, pre-emergence, 240 h, 0 to 100 scale where 0 is no effect and 100 is complete control, read-out: Kochia plant response rating; for pest or weed control at 31 g/ha: 31 g ai/ha, Preemergence; for pest or weed control at 125 g/ha: 125 g ai/ha, preemergence, approx. 10 d
Method in brief: as §1

[6] = tested on: giant foxtail (Setaria faberii); test: Test A preemergence; conditions: Setaria faberi, pre-emergence, 240 h, 0 to 100 scale where 0 is no effect and 100 is complete control, read-out: Foxtail, Giant plant response rating; for pest or weed control at 31 g/ha: 31 g ai/ha, Preemergence; for pest or weed control at 125 g/ha: 125 g ai/ha, preemergence, approx. 10 d
Method in brief: as §1

[7] = tested on: blackgrass (Alopecurus myosuroides); test: Test A postemergence; conditions: Alopecurus myosuroides, post-emergence, 240 h; for pest or weed control at 125 g/ha: 125 g ai/ha, postemergence, visual injury on 0 to 100 scale (0 no effect, 100 complete control), approx. 10 d, read-out: Blackgrass plant response rating; for pest or weed control at 31 g/ha: Postemergence, 31 g ai/ha, visual injury after approx. 10 d, 0 to 100 scale, 0 no effect, 100 complete control, read-out: Plant response rating, Blackgrass
Method in brief: as §1

[8] = tested on: ragweed (common ragweed, Ambrosia elatior); test: Test A postemergence; conditions: Ambrosia artemisiifolia, post-emergence, 240 h; for pest or weed control at 125 g/ha: 125 g ai/ha, postemergence, visual injury on 0 to 100 scale (0 no effect, 100 complete control), approx. 10 d, read-out: Ragweed plant response rating; for pest or weed control at 31 g/ha: Postemergence, 31 g ai/ha, visual injury after approx. 10 d, 0 to 100 scale, 0 no effect, 100 complete control, read-out: Plant response rating, Ragweed
Method in brief: as §1

[9] = tested on: Galium (catchweed bedstraw, Galium aparine); test: Test A postemergence; conditions: Galium, post-emergence, 240 h; for pest or weed control at 125 g/ha: 125 g ai/ha, postemergence, visual injury on 0 to 100 scale (0 no effect, 100 complete control), approx. 10 d, read-out: Galium plant response rating; for pest or weed control at 31 g/ha: Postemergence, 31 g ai/ha, visual injury after approx. 10 d, 0 to 100 scale, 0 no effect, 100 complete control, read-out: Plant response rating, Galium
Method in brief: as §1

[10] = tested on: ryegrass, Italian (Italian ryegrass, Lolium multiflorum); test: Test A postemergence; conditions: Lolium multiflorum, post-emergence, 240 h; for pest or weed control at 125 g/ha: 125 g ai/ha, postemergence, visual injury on 0 to 100 scale (0 no effect, 100 complete control), approx. 10 d, read-out: Ryegrass, Italian plant response rating; for pest or weed control at 31 g/ha: Postemergence, 31 g ai/ha, visual injury after approx. 10 d, 0 to 100 scale, 0 no effect, 100 complete control, read-out: Plant response rating, Ryegrass, Italian
Method in brief: as §1

[11] = tested on: barnyardgrass (Echinochloa crus-galli); test: Test A postemergence; conditions: Echinochloa crus-galli, post-emergence, 240 h; for pest or weed control at 125 g/ha: 125 g ai/ha, postemergence, visual injury on 0 to 100 scale (0 no effect, 100 complete control), approx. 10 d, read-out: Barnyardgrass plant response rating; for pest or weed control at 31 g/ha: Postemergence, 31 g ai/ha, visual injury after approx. 10 d, 0 to 100 scale, 0 no effect, 100 complete control, read-out: Plant response rating, Barnyardgrass
Method in brief: as §1

[12] = tested on: pigweed (Amaranthus retroflexus); test: Test A postemergence; conditions: Amaranthus retroflexus, post-emergence, 240 h; for pest or weed control at 125 g/ha: 125 g ai/ha, postemergence, visual injury on 0 to 100 scale (0 no effect, 100 complete control), approx. 10 d, read-out: Pigweed plant response rating; for pest or weed control at 31 g/ha: Postemergence, 31 g ai/ha, visual injury after approx. 10 d, 0 to 100 scale, 0 no effect, 100 complete control, read-out: Plant response rating, Pigweed
Method in brief: as §1

Kochia (Kochia scoparia) [13] = test: Test A postemergence; conditions: Bassia scoparia, post-emergence, 240 h; for pest or weed control at 125 g/ha: 125 g ai/ha, postemergence, visual injury on 0 to 100 scale (0 no effect, 100 complete control), approx. 10 d, read-out: Kochia plant response rating; for pest or weed control at 31 g/ha: Postemergence, 31 g ai/ha, visual injury after approx. 10 d, 0 to 100 scale, 0 no effect, 100 complete control, read-out: Plant response rating, Kochia
Method in brief: as §1

[14] = tested on: wheat (Triticum aestivum); test: Test A postemergence; conditions: Triticum aestivum, post-emergence, 240 h; for plant injury at 125 g/ha: 125 g ai/ha, postemergence, visual injury on 0 to 100 scale (0 no effect, 100 complete control), approx. 10 d, read-out: Wheat plant response rating; for plant injury at 31 g/ha: Postemergence, 31 g ai/ha, visual injury after approx. 10 d, 0 to 100 scale, 0 no effect, 100 complete control, read-out: Plant response rating, Wheat
Method in brief: as §1

corn (Zea mays) = test: Test A postemergence; conditions: Zea mays, post-emergence, 240 h; for plant injury at 125 g/ha: 125 g ai/ha, postemergence, visual injury on 0 to 100 scale (0 no effect, 100 complete control), approx. 10 d, read-out: Corn plant response rating; for Corn plant response rating (crop injury, 0 = no effect, 100 = complete kill) at 31 g/ha: Postemergence, 31 g ai/ha, visual injury after approx. 10 d, 0 to 100 scale, 100 complete control
Method in brief: as §1

[15] = tested on: giant foxtail (Setaria faberii); test: Test A postemergence; conditions: Setaria faberi, post-emergence, 240 h; for pest or weed control at 125 g/ha: 125 g ai/ha, postemergence, visual injury on 0 to 100 scale (0 no effect, 100 complete control), approx. 10 d, read-out: Foxtail, Giant plant response rating; for pest or weed control at 31 g/ha: Postemergence, 31 g ai/ha, visual injury after approx. 10 d, 0 to 100 scale, 0 no effect, 100 complete control, read-out: Plant response rating, Foxtail, Giant
Method in brief: as §1

[16] = tested on: ducksalad (Heteranthera limosa); test: Test B flooded paddy test; conditions: Heteranthera limosa, 250 g ai/ha, Flood; 0 to 100 scale where 0 is no effect and 100 is complete control; read-out: Ducksalad plant response rating
Method in brief: (§2)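 Plants at 2-leaf stage flooded to 3 cm above soil, with compounds applied directly to paddy water and that depth maintained. Plants kept in greenhouse 13–15 d. Visual rating versus controls on a 0 (no effect) to 100 (complete control) scale.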

rice (Oryra sativa) = test: Test B flooded paddy test; conditions: Oryza sativa, 250 g ai/ha, Flood; 0 to 100 scale where 0 is no effect and 100 is complete control; read-out: Rice plant response rating
Method in brief: as §2

[17] = tested on: barnyardgrass (Echinochloa crus-galli); test: Test B flooded paddy test; conditions: Echinochloa crus-galli, 250 g ai/ha, Flood; 0 to 100 scale where 0 is no effect and 100 is complete control; read-out: Barnyardgrass plant response rating
Method in brief: as §2

[18] = tested on: sedge, umbrella (small-flower umbrella sedge, Cyperus difformis); test: Test B flooded paddy test; conditions: Cyperus difformis, 250 g ai/ha, Flood; 0 to 100 scale where 0 is no effect and 100 is complete control; read-out: Sedge, Umbrella plant response rating
Method in brief: as §2

CN1C[C@H](c2ccc(C(F)(F)F)cn2)[C@@H](C(=O)Nc2ccc(F)c(F)c2F)C1=O [Compound 1106]
90%: pest or weed control at 125 g/ha [3] | pest or weed control at 125 g/ha [6]
100%: pest or weed control at 250 g/ha [16]
70%: pest or weed control at 250 g/ha [17]
40%: pest or weed control at 31 g/ha [9] | pest or weed control at 250 g/ha (rice (Oryra sativa))
50%: pest or weed control at 31 g/ha [3]
60%: pest or weed control at 125 g/ha (Kochia (Kochia scoparia) [5]) | pest or weed control at 31 g/ha [6] | pest or weed control at 125 g/ha [9] | pest or weed control at 125 g/ha (Kochia (Kochia scoparia) [13]) | pest or weed control at 125 g/ha [15]
80%: pest or weed control at 125 g/ha [11]
20%: pest or weed control at 125 g/ha [4] | pest or weed control at 125 g/ha [12]
0%: pest or weed control at 31 g/ha [1] | pest or weed control at 31 g/ha [2] | pest or weed control at 125 g/ha [2] | pest or weed control at 31 g/ha [4] | pest or weed control at 31 g/ha (Kochia (Kochia scoparia) [5]) | pest or weed control at 125 g/ha [7] | pest or weed control at 31 g/ha [7] | pest or weed control at 125 g/ha [8] | pest or weed control at 31 g/ha [8] | pest or weed control at 125 g/ha [10] | pest or weed control at 31 g/ha [10] | pest or weed control at 31 g/ha (Kochia (Kochia scoparia) [13]) | plant injury at 125 g/ha [14] | plant injury at 31 g/ha [14] | plant injury at 125 g/ha (corn (Zea mays)) | Corn plant response rating (crop injury, 0 = no effect, 100 = complete kill) at 31 g/ha (corn (Zea mays)) | pest or weed control at 31 g/ha [15] | pest or weed control at 250 g/ha [18]
30%: pest or weed control at 125 g/ha [1] | pest or weed control at 31 g/ha [11]
10%: pest or weed control at 31 g/ha [12]

CON1CC[C@H](c2ccc(C(F)(F)F)cc2)[C@@H](C(=O)Nc2ccc(F)c(F)c2F)C1=O [Compound 1107]
0%: pest or weed control at 31 g/ha [1] | pest or weed control at 125 g/ha [1] | pest or weed control at 31 g/ha [2] | pest or weed control at 125 g/ha [2] | pest or weed control at 31 g/ha [3] | pest or weed control at 125 g/ha [3] | pest or weed control at 31 g/ha [4] | pest or weed control at 125 g/ha [4] | pest or weed control at 31 g/ha (Kochia (Kochia scoparia) [5]) | pest or weed control at 125 g/ha (Kochia (Kochia scoparia) [5]) | pest or weed control at 31 g/ha [6] | pest or weed control at 125 g/ha [6] | pest or weed control at 125 g/ha [7] | pest or weed control at 31 g/ha [7] | pest or weed control at 125 g/ha [8] | pest or weed control at 31 g/ha [8] | pest or weed control at 125 g/ha [9] | pest or weed control at 31 g/ha [9] | pest or weed control at 125 g/ha [10] | pest or weed control at 31 g/ha [10] | pest or weed control at 125 g/ha [11] | pest or weed control at 31 g/ha [11] | pest or weed control at 125 g/ha [12] | pest or weed control at 31 g/ha [12] | pest or weed control at 125 g/ha (Kochia (Kochia scoparia) [13]) | pest or weed control at 31 g/ha (Kochia (Kochia scoparia) [13]) | plant injury at 125 g/ha [14] | plant injury at 31 g/ha [14] | plant injury at 125 g/ha (corn (Zea mays)) | Corn plant response rating (crop injury, 0 = no effect, 100 = complete kill) at 31 g/ha (corn (Zea mays)) | pest or weed control at 125 g/ha [15] | pest or weed control at 31 g/ha [15] | pest or weed control at 250 g/ha (rice (Oryra sativa)) | pest or weed control at 250 g/ha [17] | pest or weed control at 250 g/ha [18]
80%: pest or weed control at 250 g/ha [16]
